# Measurements: US5843481A, “Treatment of proliferative disorders, metastasaes, and drug resistant tumors with vanadate compounds and derivatives or analogues thereof” (priority 1994, dated 1998)
# “Also recorded” adds a separate entry of the source.
# Key:
# carcinogenesis = conditions: reported by G. Shklar et al.; cited from earlier work
# fos = test: Northern blot analysis of fos mRNA expression in chondrocytes; type: cell-based, bovine; conditions: for expression of c-fos: stimulation, 1 hour, bovine chondrocytes, AA 3 μM; for fos expression in response to factors such as IL 1 or arachidonic acid: summary statement
# Procedure: (§1) The cytokine interleukin 1 (IL 1) has been used to identify the intermediate second messengers which regulate the expression of fos and jun.
# In order to elucidate this possibility, the effect of DPI on fos and jun mRNA levels induced by IL 1 was investigated. RNA from chondrocytes treated with IL 1 in the presence and absence of DPI were analyzed by Northern blot analysis using either fos or collagenase cDNA probes.
# Since superoxides are rapidly converted to hydrogen peroxide in the cell by superoxide dismutase, whether hydrogen peroxide could mimic the effect of IL 1 in the induction of fos expression was investigated. RNA was extracted from chondrocytes (Kandel et al. supra) treated with H2 O2 for 30, 60 and 90 minutes and examined by Northern blot analysis using a fos cDNA probe.
# (§2) Bovine articular chondrocytes were isolated and plated as previously described (Kandel R. A. et al. Biochim. Biophys. Acta. 1053, 130-134, 1990). In order to determine the effect of orthovanadate on IL 1 and PMA (phorbol ester) induced responses, chondrocytes were incubated with orthovanadate (100 μM) for 2 hours before stimulation with IL 1 (10 ng/ml) or PMA ([…]). collagenase production was determined by incubating chondrocytes for 24 hours with IL 1 or PMA and the cell conditioned medium was assayed for collagenase activity using an ELISA procedure as described previously (Kandel et al. supra) PLA2 activity was measured by incorporating ^3 H-arachidonic acid (^3 H-AA) into the cells and then incubating the cells with medium containing 1 mg/ml BSA, either alone or in the presence of IL 1 or PMA, for 10 min. as previously described (Conquer, J. A. […], Biochim. Biophys. Acta. 1134, 1-6). The amount of ^3 H-AA liberated into the supernatant was determined. To measure PGE2 production, chondrocytes were incubated for 6 hours in Ham's F12 medium, either alone or with IL 1 or PMA. The supernatant was analyzed by RIA using an antibody specific for PGE2 (Dr. S. A. Jones, Mount Sinai Hospital, Toronto, Can.). In order to examine the expression of c-fos and c-jun, chondrocytes were incubated for 1 hour in the presence of IL-1, PMA or AA (3 μM). Chondrocytes were washed in PBS and the total RNA extracted as previously described (Cruz. et al, 1991, Biochem. J. 277, 327-330). RNA samples were run on formaldehyde agarose gels and transferred to nylon membrane for northern analysis using cDNA probes for c-fos and c-jun.
# Cells were also incubated as described above with 20 mM N-acetylcyateine for 20 min. and then incubated with IL 1 for an additional 1 or 12 hours. The RNA was extracted and examined by Northern blot analysis using cDNA probes for c-fos and collagenase.
# jun = test: Northern blot analysis of jun mRNA expression in chondrocytes; type: cell-based, bovine; conditions: for expression of c-jun: stimulation, 1 hour, bovine chondrocytes, AA 3 μM; for jun expression in response to factors such as IL 1 or arachidonic acid: summary statement
# Description: as §1
# (§3) Although IL 1 stimulated superoxide production, it was not known whether IL 1 induced fos and jun expression was dependent on the production of superoxides. In order to elucidate this possibility, the effect of DPI on fos and jun mRNA levels induced by IL 1 was investigated. RNA from chondrocytes treated with IL 1 in the presence and absence of DPI were analyzed by Northern blot analysis using either fos or collagenase cDNA probes. […] Similar data has been obtained for IL 1 induced jun expression. Furthermore, inhibition of fos and jun expression by DPI was sufficient to suppress IL 1 induced and constitutive collagenase expression.
# as §2
# collagenase [1] = test: Collagenase production by chondrocytes (ELISA of conditioned medium); type: cell-based, bovine; conditions: stimulation, 24 hours, monolayer culture
# Procedure: as §2, with “Chondrocytes were washed in PBS and the total RNA extracted as previously described (Cruz. et al, 1991, Biochem. J. 277, 327-330). RNA samples were run on formaldehyde agarose gels and transferred to nylon membrane for northern analysis using cDNA probes for c-fos and c-jun.” left out
# PLA2 = test: 3H-arachidonic acid release by chondrocytes (PLA2 activity); type: cell-based, bovine; conditions: stimulation, IL 1 10 ng/ml or PMA 100 mg/ml, 10 min
# Procedure: as §2, with “Chondrocytes were washed in PBS and the total RNA extracted as previously described (Cruz. et al, 1991, Biochem. J. 277, 327-330). RNA samples were run on formaldehyde agarose gels and transferred to nylon membrane for northern analysis using cDNA probes for c-fos and c-jun.” left out
# PGE2 = PGE2 production by chondrocytes (RIA); type: cell-based, bovine; conditions: stimulation, 6 hours, monolayer culture
# Procedure: as §2, with “Chondrocytes were washed in PBS and the total RNA extracted as previously described (Cruz. et al, 1991, Biochem. J. 277, 327-330). RNA samples were run on formaldehyde agarose gels and transferred to nylon membrane for northern analysis using cDNA probes for c-fos and c-jun.” left out
# [2] = tested on: KB8, KB8-5 and KB85-11 cells; conditions: background statement; cited from earlier work
# [3] = tested on: Chondrocytes (reactive oxygen intermediates; NADPH oxidase); test: FACS analysis of reactive oxygen intermediates/superoxide production in chondrocytes (dihydroxyrhodamine); type: cell-based, bovine; conditions: inhibition, FIG. 1
# Procedure: Chondrocytes (i.e. bovine chondrocytes plated as described in Kandel R. A. et al. Biochim. Biophys. Acta. 1053, 130-134, 1990) were incubated with dihydroxyrhodamine for 5 min (DHR) or for 4 hours in the absence (-IL 1 ) or presence of IL 1 (+IL 1), or in the presence of both IL 1 and the NADPH inhibitor, diphenyl iodonium, (+IL 1, +DPI).
# collagenase [4] = test: Northern blot analysis of collagenase mRNA expression in chondrocytes; type: cell-based, bovine
# Description: as §1, §3
# Cells were also incubated as described above with 20 mM N-acetylcyateine for 20 min. and then incubated with IL 1 for an additional 1 or 12 hours. The RNA was extracted and examined by Northern blot analysis using cDNA probes for c-fos and collagenase. N-acetylcysteine which is converted to GSH intracellularly was also found to reduce the levels of fos and collagenase expression in response to IL 1 (FIG. 5). Presumably the higher intracellular levels of GSH reduced H2 O2 and superoxide levels and suppressed the induction of fos and collagenase expression.
# MDAY-D2 [5] = test: MDAY-D2 tumor growth in mice, combination therapy, Example 7; type: in vivo
# Procedure: Twenty mice were injected subcutaneously with 2×10^5 cells on Day 1. At day 4, the mice were divided into four groups of five mice. Group one (control) received subcutaneous injections of 50 μl of water. Group two received daily intraperitoneal injections of 50 μl of 250 mM N-acetylcysteine. Group three received daily subcutaneous injections of 50 μl of 10 mg/ml of orthovanadate. Group four received daily intraperitoneal injections of 50 μl of […] N-acetylcysteine and 20 minutes later received 50 μl of subcutaneous injection of 50 μl of 10 mg/ml of orthovanadate. On day 10 the treatment was stopped. The animals were sacrificed on Day 13 and analyzed for tumor growth.
# superoxides and H2O2 = test: Levels of superoxides and H2O2 in cells (conclusion of Example 1); type: cell-based, bovine; conditions: conclusion from results
# Procedure: as §2, with “Chondrocytes were washed in PBS and the total RNA extracted as previously described (Cruz. et al, 1991, Biochem. J. 277, 327-330). RNA samples were run on formaldehyde agarose gels and transferred to nylon membrane for northern analysis using cDNA probes for c-fos and c-jun.” left out
# MDAY-D2 cells = test: Viability of MDAY-D2 cells with different vanadyl compounds; type: cell-based, mouse; conditions: 0-50 μM, 48 hours; FIG. 8
# Procedure: Three different forms of vanadyl compounds were examined for their effect on viability of cancer cell lines. MDAY-D2 cells were incubated in media containing 0-50 μM orthovanadate, vanadyl sulphate, or vanadyl hydroperoxide for 48 hours. The cells were harvested and the number of viable cells determined. […] Although there were slight differences in sensitivity, the overall cell death was similar.
# MDAY-D2 [6] = test: MDAY-D2 tumor growth in mice, three vanadyl compounds, Example 6B; type: in vivo; conditions: for effect on tumor growth, in words: 10 mg/ml s.c. daily; for animals that died: 10 mg/ml, 50 μl s.c. daily for 16 days, groups of five mice
# Description: (§4) In order to examine the ability of vanadyl compounds to reduce tumor formation, growth and metastases, a specific animal model which allows investigation of all of these processes in the same animal was chosen. This model involves the injection of a metastatic haematopoietic cell line, MDAY-D2, into mice subcutaneously. These cells form a tumor at the site of injection and its size can be easily determined. In addition, these cells metastasize to the liver and metastases can be detected histologically after day 17 to 19. This model provides a very sensitive and reproducible approach to investigate the effect of vanadyl compounds on tumor growth and metastases.
# In a separate experiment using the same animal model, the effect of orthovanadate, vanadyl sulphate and vanadyl hydroperoxide administration on tumor growth in vivo was examined. On Day 1, 20 mice were injected with 2×10^5 MDAY-D2 cell subcutaneously. The mice were divided into four groups of five mice. At day 5, the animals were injected subcutaneously with 50 μl of water alone or containing 10 mg/ml of orthovanadate, 10 mg/ml of vanadyl sulphate, or 10 mg/ml of vanadyl hydroperoxide. This treatment was continued daily for 16 days. At day 21, the mice were sacrificed and the tumors dissected and weighed.
# MDAY-D2 [7] = test: Liver metastases of MDAY-D2 cells in mice (histology), Example 8; type: in vivo
# Description: as §4
# Livers were removed from animals treated as described above and prepared for histological examination. FIG. 16 compares liver sections from untreated (C), orthovanadate (VO)(500 μg/day) and vanadyl sulphate (VS)(500 μg/day) treated animals. Nodules are identified with an arrow.
# mammary carcinogenesis = conditions: dietary; cited from earlier work
# cells = test: Combined effect of H2O2 and orthovanadate on cell toxicity; type: cell-based; conditions: 1 mM H2O2, 24 hours; FIG. 9
# Procedure: If the orthovanadate induced formation of hydroxyl radicals is responsible for cell toxicity, then adding exogenous H2 O2 should enhance the effects of orthovanadate. Accordingly, cells were incubated in media alone or containing 1 mM H2 O2 or 10 μM orthovanadate or both for 24 hours. The cells were harvested and cell viability determined.
# [8] = 20 mM N-acetylcysteine for 20 min, FIG. 5
molecule,measurement,setting,value
N[C@@H](CCC(=O)N[C@@H](CS)C(=O)NCC(=O)O)C(=O)O [glutathione],anticancer activity,carcinogenesis,reported to have anticancer activity
"CCCCCCCCCCCCCC(=O)OC1C(C)C2(O)C(C=C(CO)CC3(O)C(=O)C(C)=CC32)C2C(C)(C)C12OC(C)=O (centres unmarked) [PMA, reference compound]",expression of c-fos,fos,stimulated
same,expression of c-jun,jun,stimulated
same,production of collagenase,collagenase [1],induced
same,release of 3H-AA,PLA2,induced
same,production of PGE2,PGE2,induced
"O=C1O[C@H]([C@@H](O)CO)C(O)=C1O [vitamin C, ascorbic acid]",anticancer activity,carcinogenesis,reported to have anticancer activity
COc1cccc2c1C(=O)c1c(O)c3c(c(O)c1C2=O)C[C@@](O)(C(=O)CO)C[C@@H]3O[C@H]1C[C@H](N)[C@H](O)[C@H](C)O1 [doxorubicin],killing of drug resistant cell lines by conventional chemotherapeutic agents,[2],not killed
CC1=C(/C=C/C(C)=C/C=C/C(C)=C/C=C/C=C(C)/C=C/C=C(C)/C=C/C2=C(C)CCCC2(C)C)C(C)(C)CCC1 [β-carotene],anticancer activity,carcinogenesis,reported to have anticancer activity
"CCCCC/C=C\C/C=C\C/C=C\C/C=C\CCCC(=O)O [AA, arachidonic acid]",expression of c-fos,fos,stimulated
same,expression of c-jun,jun,stimulated
COc1cc2c(c(OC)c1OC)-c1ccc(OC)c(=O)cc1[C@@H](NC(C)=O)CC2 [colchicine],killing of drug resistant cell lines by conventional chemotherapeutic agents,[2],not killed
"c1ccc([I+]c2ccccc2)cc1 [diphenyl iodonium (DPI), diphenyl iodonium]",constitutive and IL 1 induced reactive oxygen intermediates,[3],completely inhibits
same,IL 1 induction of fos,"fos; Northern blot, FIG. 2",suppressed
same,fos expression in response to factors such as IL 1 or arachidonic acid,fos,completely inhibit
same,jun expression in response to factors such as IL 1 or arachidonic acid,jun,completely inhibit
same,IL 1 induced and constitutive collagenase expression,"collagenase [4]; Northern blot, FIG. 2",suppress
CC(=O)N[C@@H](CS)C(=O)O [N-acetylcysteine],levels of fos expression in response to IL 1,fos; [8],reduce
same,fos expression in response to factors such as IL 1 or arachidonic acid,fos,completely inhibit
same,jun expression in response to factors such as IL 1 or arachidonic acid,jun,completely inhibit
same,levels of collagenase expression in response to IL 1,collagenase [4]; [8],reduce
same,effect on slight toxic effects observed with orthovanadate alone,MDAY-D2 [5]; N-acetylcysteine co-administered,appeared to reduce the slight toxic effects
same,"tumor growth inhibition in vivo, in words",MDAY-D2 [5]; combination therapy,capable of reducing tumor growth to some extent
same,levels of superoxides and H2O2 in cells,superoxides and H2O2,indirectly reduce
O=S(=O)([O-])[O-].[O]=[V+2] [vanadyl sulphate],effectiveness in killing MDAY-D2 cells,MDAY-D2 cells,equally effective
same,"effect on tumor growth, in words",MDAY-D2 [6],reduced tumors size in all of the animals; also recorded: less effective
same,animals that died,MDAY-D2 [6],One animal died
same,levels of metastases in liver,"MDAY-D2 [7]; 500 μg/day, FIG. 16",did not have detectable levels of metastases
same,effectiveness at preventing metastases,"MDAY-D2 [7]; preliminary results, liver histology",effective at preventing metastases
same,inhibition of chemically induced mammary carcinogenesis,mammary carcinogenesis,inhibit
CC[C@]1(O)C[C@@H]2CN(CCc3c([nH]c4ccccc34)[C@@](C(=O)OC)(c3cc4c(cc3OC)N(C)[C@H]3[C@@](O)(C(=O)OC)[C@H](OC(C)=O)[C@]5(CC)C=CCN6CC[C@]43[C@@H]65)C2)C1 [vinblastine],killing of drug resistant cell lines by conventional chemotherapeutic agents,[2],not killed
Cc1c(C)c2c(c(C)c1O)CCC(C)(CCCC(C)CCCC(C)CCCC(C)C)O2 (stereo not drawn) [α-tocopherol],anticancer activity,carcinogenesis,reported to have anticancer activity
vanadyl hydroperoxide,effectiveness in killing MDAY-D2 cells,MDAY-D2 cells,equally effective
same,"effect on tumor growth, in words",MDAY-D2 [6],too toxic to evaluate its efficacy
same,animals that died,MDAY-D2 [6],all five died
vitamin E,anticancer activity,carcinogenesis,reported to have anticancer activity
"OO [H2 O2, hydrogen peroxide]",stimulation of fos expression,"fos; H2O2 for 30, 60 and 90 minutes, FIG. 3",stimulates
same,cell toxicity of H2O2 alone,cells,small effect
